# Measurements reported in US20210144998A1 (priority 2019, published 2021).
# Where a name gives a salt, the structure may show the parent alone. Read-outs that look alike come from different tables or passages of the source.
# Key:
# VisNR = details: Microsource
structure (smiles),measurement,setting,value
O=c1[nH]cc(F)c(=O)[nH]1 [5-Fluorouracil],activity annotation LdtR,LdtR; LOPAC,5-Fluorouracil (2; inactive LdtR LOPAC)
CC[C@H]1OC(=O)[C@H](C)[C@@H](O[C@H]2C[C@@](C)(OC)[C@@H](O)[C@H](C)O2)[C@H](C)[C@@H](O[C@@H]2O[C@H](C)C[C@H](N(C)C)[C@H]2O)[C@](C)(OC)C[C@@H](C)C(=O)[C@H](C)[C@@H](O)[C@]1(C)O [CLARITHROMYCIN],activity annotation RpoH,RpoH; NIHCC,CLARITHROMYCIN (2; inactive LdtR & RpoH NIHCC)
same,activity annotation LdtR,LdtR; NIHCC,CLARITHROMYCIN (2; inactive LdtR & RpoH NIHCC)
O=C(O)CN(CCN(CC(=O)O)CC(=O)O)CCN(CC(=O)O)CC(=O)O [Diethylenetriaminepentaacetic acid],"activity annotation, target not given",LOPAC,Diethylenetriaminepentaacetic acid (1; inactive LOPAC)
CC(=O)NC[C@H]1CN(c2ccc(N3CCOCC3)c(F)c2)C(=O)O1 [LINEZOLIDE],"activity annotation, target not given",NIHCC,LINEZOLIDE (1; inactive NIHCC)
CCn1cc(C(=O)O)c(=O)c2cc(F)c(N3CCNC(C)C3)c(F)c21.Cl (stereo not shown) [Lomefloxacin hydrochloride],activity annotation VisNR,VisNR,Lomefloxacin hydrochloride (2; inactive LOPAC & VisNR Microsource)
CCn1cc(C(=O)O)c(=O)c2cc(F)c(N3CCN(C)CC3)cc21.CS(=O)(=O)O [PEFLOXACIN MESYLATE],"activity annotation, target not given",NIHCC,PEFLOXACIN MESYLATE (2; inactive NIHCC)
CN1CCN(c2c(F)cc3c(=O)c(C(=O)O)cn4c3c2SCC4)CC1 [RUFLOXACIN HCl],activity annotation RpoH,RpoH; NIHCC,RUFLOXACIN HCl (2; inactive LdtR & RpoH NIHCC)
same,activity annotation LdtR,LdtR; NIHCC,RUFLOXACIN HCl (2; inactive LdtR & RpoH NIHCC)
NC(=O)c1ncn([C@@H]2O[C@H](CO)[C@@H](O)[C@H]2O)n1 [Ribavirin],activity annotation RpoH,RpoH; Biomol FDA,Ribavirin (2; inactive RpoH Biomol FDA)
